These results are taken from PMC9962638, “Integrating Siderophore Substructures in Thiol-Based Metallo-β-Lactamase Inhibitors” (Molecules, 2023).

The target in this assay is T1, NDM-1 (Klebsiella pneumoniae, UniProt C7C422).
T1 construct: gene blaNDM-1; recombinant, expressed in E. coli
Briefly: fluorescence enzyme assay, fluorocillin hydrolysis. Type of assay: biochemical. An excerpt: fluorescence enzyme assay, fluorocillin hydrolysis on NDM-1

T1 sequence (C7C422 29-270 limits assumed): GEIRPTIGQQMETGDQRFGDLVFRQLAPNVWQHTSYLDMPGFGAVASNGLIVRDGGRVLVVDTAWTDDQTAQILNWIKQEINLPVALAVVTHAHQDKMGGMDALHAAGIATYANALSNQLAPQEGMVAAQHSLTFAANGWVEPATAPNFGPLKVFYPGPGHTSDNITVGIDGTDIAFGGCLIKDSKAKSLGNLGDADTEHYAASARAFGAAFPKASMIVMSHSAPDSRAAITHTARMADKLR

By IC50 is commonly meant the concentration that gives 50% inhibition. Read a low IC50 as greater potency. Regarding `O=C(O)[C@H]1CCCCN1C(=O)C(CS)Cc1cccc(O)c1O` (stereo partly drawn) [compound 2, (2R)-1-(2-(2,3-dihydroxybenzyl)-3-mercaptopropanoyl)piperidine-2-carboxylic acid], the IC50 stood at 4300 ± 440 nM. Then `COc1ccc(CCC(=O)N2CCN(C(=O)[C@H](C)CS)[C@@H](C(=O)O)C2)cc1OC` [compound 18, (R)-4-(3-(3,4-dimethoxyphenyl)propanoyl)-1-((S)-3-mercapto-2-methylpropanoyl)piperazine-2-carboxylic acid], with 220 ± 16 nM; and `C[C@H](CS)C(=O)N1CCN(C(=O)CCc2ccc(O)c(O)c2)C[C@@H]1C(=O)O` [compound 3, (R)-4-(3-(3,4-dihydroxyphenyl)propanoyl)-1-((S)-3-mercapto-2-methylpropanoyl)piperazine-2-carboxylic acid], with 130 ± 17 nM; and `COc1cccc(CC(CS)C(=O)N2CCCC[C@@H]2C(=O)O)c1OC` (stereo partly drawn) [compound 12, (2R)-1-(2-(2,3-dimethoxybenzyl)-3-mercaptopropanoyl)piperidine-2-carboxylic acid], with 1900 ± 270 nM.
